The record followed here is ChEMBL document CHEMBL1201862, “PubChem BioAssay data set” (2004).

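Cultured in 96-well plates, cells were exposed to test compound for 48 hours across five concentrations. The concentration for 50% growth inhibition is given as GI50.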 Activity calls are given as the source filed them. Rule as the data show it: active = GI50 up to about 1.1 µM and inactive = higher. A value given as a limit tells only on which side of the number the result lay.

Assay in all cases: NCI anticancer screen, dose series, 48 h
Experiment [1] has as its system OVCAR-8.
The test system of experiment [2] is KM12.
Experiment [3] concerns SNB-75.
The subject of experiment [4] is Hs-578T.
Experiment [5] has as its system SW-620.
For experiment [6], the system named is K562.
Experiment [7] relates to HOP-92.
In experiment [8] the test system is A498.
Experiment [9] has as its system SN12C.
For experiment [10], the system named is CAKI-1.
The test system of experiment [11] is PC-3.
Experiment [12] relates to COLO 205.
For experiment [13], the system named is NCI-H522.
Experiment [14] relates to SK-OV-3.
Experiment [15] relates to NCI-H226.
The test system of experiment [16] is TK-10.
In experiment [17] the test system is BT-549.
The test system of experiment [18] is HCT-15.
Experiment [19] has as its system OVCAR-3.
Experiment [20] has as its system OVCAR-4.

Consider `O=C(O)CC1(C(=O)O)CCCCC1`, for which the GI50 in experiment [1], in experiment [2], in [3], in [4], in experiment [5] and in experiment [6] was > 100 µM (inactive) each time. Besides, the GI50 in [7], in [8], in experiment [9], in experiment [10], in [11] and in experiment [12] was > 100 µM (inactive) each time. Further, the GI50 in experiment [13] is > 100 µM (inactive); in experiment [14], > 100 µM (inactive); in experiment [15], > 100 µM (inactive); in experiment [16], > 100 µM (inactive); in experiment [17] it was > 100 µM (inactive); in [18], greater than 100 µM. Further, the GI50 in experiment [19] and in [20] was > 100 µM (inactive) throughout.
For `CSC1=NS(=O)(=O)c2cc(C(=O)NN(C)C(=O)c3cc4c(cc3Cl)SC(SC)=NS4(=O)=O)c(Cl)cc2S1`, the GI50 in experiment [1], in experiment [2], in experiment [3], in experiment [4], in [5] and in experiment [6] was > 10 µM (inactive) throughout. Besides, the GI50 in experiment [7], in [8], in experiment [9], in [10], in [11] and in experiment [12] was > 10 µM (inactive) in each case. Also, the GI50 in experiment [13] was > 10 µM (inactive); in experiment [14], > 10 µM (inactive); in experiment [15], > 10 µM (inactive); in experiment [16] it was > 10 µM (inactive); in experiment [17], > 10 µM (inactive); in [18] it was greater than 10 µM. The GI50 in [19] and in experiment [20] was > 10 µM (inactive) in each case.
`Clc1ccccc1/C=C/c1ccnc2ccccc12`: the GI50 was 18.3 µM (inactive) in experiment [1]; 17.4 µM (inactive) in experiment [2]; 15.6 µM (inactive) in experiment [3]; 20.7 µM (inactive) in experiment [4]; 18.4 µM (inactive) in experiment [5]; 15.9 µM (inactive) in [6]. Besides, the GI50 in [7] is 10.2 µM (inactive); in experiment [8] it was 18.8 µM (inactive); in experiment [9], 16.4 µM (inactive); in experiment [10], 16.9 µM (inactive); in experiment [11], 16.4 µM (inactive); in [12] it was 13.8 µM (inactive). Moreover, the GI50 in [13] was 14.3 µM (inactive); in experiment [14], 18.5 µM (inactive); in [15], 16.8 µM (inactive); in experiment [16] it was 18 µM (inactive); in experiment [17] it was 14.6 µM (inactive); in experiment [18] it was 13.9 µM. Further, the GI50 is 14.5 µM (inactive) in experiment [19] and 16.1 µM (inactive) in [20].
With `CC1=NN(c2nc(N)nc(CCl)n2)CC1`, the GI50 in [1] was 20.8 µM (inactive); in [2], 16.4 µM (inactive); in [3] it was 18.6 µM (inactive); in experiment [4], 26.3 µM (inactive); in experiment [5] it was 23.3 µM (inactive); in experiment [6] it was 18.2 µM (inactive). Moreover, the GI50 was 19.3 µM (inactive) in [7]; 42.3 µM (inactive) in [8]; 32.4 µM (inactive) in experiment [9]; 9.12 µM (inactive) in [10]; 36.2 µM (inactive) in experiment [11]; 18.5 µM (inactive) in experiment [12]. Moreover, the GI50 in experiment [13] was 1.96 µM (inactive); in [14] it was 36.6 µM (inactive); in experiment [15], 30.5 µM (inactive); in experiment [16], 55.5 µM (inactive); in experiment [17] it was 31 µM (inactive); in experiment [18], 17.3 µM. Further, the figures for the GI50 in experiment [19] and in experiment [20] were 13.4 µM (inactive) and 16.8 µM (inactive), respectively.
For the compound `COC(=O)[C@H](Cc1ccccc1)NC(=O)N(CCC#N)CCCCN(CCC#N)C(=O)N[C@@H](Cc1ccccc1)C(=O)OC`, the GI50 in experiment [1] was > 100 µM (inactive); in experiment [2], > 100 µM (inactive); in experiment [3], > 27.2 µM (inactive); in [4] it was > 100 µM (inactive); in experiment [5], > 100 µM (inactive); in experiment [6] it was > 100 µM (inactive). Moreover, the GI50 in [7], in experiment [8], in [9], in [10], in experiment [11] and in [12] was > 100 µM (inactive) throughout. The GI50 is > 100 µM (inactive) in experiment [13]; > 100 µM (inactive) in experiment [14]; > 100 µM (inactive) in [15]; > 100 µM (inactive) in experiment [16]; > 100 µM (inactive) in experiment [17]; greater than 100 µM in [18]. Besides, the GI50 in experiment [19] and in [20] was > 100 µM (inactive) in each case.
As for `COc1ccc(CCN(C)C(=O)CC(C#N)(c2ccccc2)c2ccc(OC)c(OC)c2)cc1OC` (stereo not given), the GI50 in experiment [1] is > 100 µM (inactive); in experiment [2], > 100 µM (inactive); in [3] it was > 100 µM (inactive); in experiment [4] it was > 100 µM (inactive); in experiment [5], > 100 µM (inactive); in experiment [6], > 42.2 µM (inactive). The GI50 in experiment [7] is 3.15 µM (inactive); in [8], > 100 µM (inactive); in experiment [9], > 100 µM (inactive); in experiment [10], > 100 µM (inactive); in experiment [11], > 100 µM (inactive); in experiment [12] it was > 100 µM (inactive). For the same compound, the GI50 in experiment [13] was > 94.6 µM (inactive); in [14] it was > 100 µM (inactive); in [15], > 100 µM (inactive); in experiment [16], > 100 µM (inactive); in experiment [17], > 100 µM (inactive); in experiment [18], greater than 100 µM. Further, the GI50 in experiment [19] and in experiment [20] was > 100 µM (inactive) throughout.
Take `CCc1c(Cl)c(C)cc(O)c1Cl`: the GI50 was 44.3 µM (inactive) in experiment [1]; 22.6 µM (inactive) in [2]; 56.8 µM (inactive) in experiment [3]; 25.7 µM (inactive) in experiment [4]; 20.6 µM (inactive) in experiment [5]; 33.7 µM (inactive) in experiment [6]. Moreover, the GI50 in experiment [7] was 23.2 µM (inactive); in experiment [8], 18.8 µM (inactive); in experiment [9] it was 16.7 µM (inactive); in [10] it was 74.1 µM (inactive); in experiment [11], 19.6 µM (inactive); in experiment [12], 43.7 µM (inactive). Besides, the GI50 in experiment [13] was 30.7 µM (inactive); in [14], > 100 µM (inactive); in experiment [15], 20.9 µM (inactive); in experiment [16] it was > 100 µM (inactive); in experiment [17], 16.6 µM (inactive); in [18] it was 17.8 µM. The GI50 in experiment [19] is 52 µM (inactive); in [20] it was 34.1 µM (inactive).
As to `C(#CP(c1ccccc1)c1ccccc1)P(C#CP(c1ccccc1)c1ccccc1)c1ccccc1`, the GI50 in [1], in [2], in experiment [3], in experiment [4], in experiment [5] and in experiment [6] was > 100 µM (inactive) in each case. The GI50 in experiment [7], in [8], in [9], in experiment [10], in experiment [11] and in experiment [12] was > 100 µM (inactive) in each case. In addition, the GI50 in experiment [13] is > 100 µM (inactive); in experiment [14] it was 2.77 µM (inactive); in experiment [15], > 100 µM (inactive); in experiment [16] it was > 100 µM (inactive); in experiment [17], > 100 µM (inactive); in experiment [18] it was greater than 100 µM. The GI50 in [19] and in experiment [20] was > 100 µM (inactive) in each case.
Take `CC1C(=O)O[B-]2(c3ccccc3)Oc3ccccc3C=[N+]12` (stereo not given): the GI50 in experiment [1] was > 100 µM (inactive); in experiment [2], > 100 µM (inactive); in experiment [3] it was 72.1 µM (inactive); in [4] it was > 100 µM (inactive); in experiment [5], > 100 µM (inactive); in experiment [6] it was > 100 µM (inactive). The GI50 in experiment [7] is 31.3 µM (inactive); in [8], > 100 µM (inactive); in [9], > 100 µM (inactive); in experiment [10], > 100 µM (inactive); in experiment [11], > 100 µM (inactive); in experiment [12], > 100 µM (inactive). The GI50 is > 100 µM (inactive) in [13]; > 100 µM (inactive) in experiment [14]; > 100 µM (inactive) in experiment [15]; > 100 µM (inactive) in [16]; > 100 µM (inactive) in experiment [17]; greater than 100 µM in experiment [18]. For the same compound, the GI50 in experiment [19] and in [20] was > 100 µM (inactive) each time.
As for `CN(C)CCn1c(=O)c2ccc3c4c(nn3CCN(C)C)c3cc(N)ccc3n(c1=O)c24`, the GI50 was 0.0238 µM (active) in experiment [1]; < 0.0196 µM (active) in experiment [2]; < 0.01 µM (active) in experiment [3]; 0.091 µM (active) in experiment [4]; < 0.0148 µM (active) in experiment [5]; < 0.0133 µM (active) in experiment [6]. For the same compound, the GI50 is 0.191 µM (active) in [7]; 0.061 µM (active) in experiment [8]; < 0.0199 µM (active) in experiment [9]; 0.0741 µM (active) in [10]; < 0.0153 µM (active) in experiment [11]; < 0.0239 µM (active) in experiment [12]. Besides, the GI50 in experiment [13] was 0.02 µM (active); in experiment [14], < 0.0211 µM (active); in experiment [15], 0.0791 µM (active); in experiment [16] it was 0.0513 µM (active); in experiment [17] it was 0.127 µM (active); in [18], less than 0.0169 µM. The GI50 in [19] is < 0.0151 µM (active); in experiment [20], 0.0165 µM (active).
